Measured values: patent US20030144339A1, “Indole derivatives as mcp-1 receptor antagonists” (priority 2000, published 2003)

Columns and labels:
THP-1 cells [1] = assay: hMCP-1 mediated chemotaxis of THP-1 cells; format: cell-based, human; details: 2 h at 37° C.
Experimental: In vitro chemotaxis assays were performed using the human monocytic cell line THP-1. Cell migration through polycarbonate membranes was measured by enumerating those passing through either directly by Coulter counting or indirectly by use of a colourimetric viability assay measuring the cleavage of a tetrazolium salt by the mitochondrial respiratory chain (Scudiero D. A. et al. 1988, Cancer Res., 48, 4827-4833).
Chemoattractants were introduced into a 96-well microtitre plate which forms the lower well of a chemotaxis chamber fitted with a PVP-free 5 μm poresize polycarbonate adhesive framed filter membrane (NeuroProbe MB series, Cabin John, Md. 20818, USA) according to the manufacturer's instructions. […] The plate was incubated at 37° C. for 3 h and the absorbance of the soluble formazan product was read on a microtitre plate reader at 450 nm. The data was input into a spreadsheet, corrected for any random migration in the absence of chemoattractant and the average absorbance values, standard error of the mean, and significance tests were calculated. bMCP-1 induced concentration dependent cell migration with a characteristic biphasic response, maximal 0.5-1.0 nm.

MCP-1 receptor B (CCR2B) = biological target: T1, MCP-1 receptor B (CCR2B) (Homo sapiens, UniProt P41597); assay: hMCP-1 receptor binding assay (125I-MCP-1, CHO-CCR2B cell membranes)
T1 construct: expressed in transfected cells; membrane fragments
T1 sequence (P41597 1-360 isoform P41597-2): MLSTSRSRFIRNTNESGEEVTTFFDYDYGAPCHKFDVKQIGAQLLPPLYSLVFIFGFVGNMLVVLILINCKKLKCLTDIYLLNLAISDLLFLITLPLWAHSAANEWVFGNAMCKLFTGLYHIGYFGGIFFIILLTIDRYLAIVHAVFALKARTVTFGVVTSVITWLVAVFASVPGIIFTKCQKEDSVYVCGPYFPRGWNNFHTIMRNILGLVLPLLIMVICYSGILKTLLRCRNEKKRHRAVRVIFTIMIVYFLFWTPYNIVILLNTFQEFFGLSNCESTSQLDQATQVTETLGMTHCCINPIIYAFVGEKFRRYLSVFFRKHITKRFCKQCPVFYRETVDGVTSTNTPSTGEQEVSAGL
Excerpt: The MCP-1 receptor B (CCR2B) cDNA was cloned by PCR from ThP-1 cell RNA using suitable oligonucleotide primers based on the published MCP-1 receptor sequences (Charo et al., 1994, Proc. Natl. Acad. Sci. USA, 91, 2752). The resulting PCR products were cloned into vector PCR-II™ (In Vitrogen, San Diego, Calif.). Error free CCR2B cDNA was subcloned as a Hind III-Not I fragment into the eukaryotic expression vector pCDNA3 (In Vitrogen) to generate pCDNA3/CC-CKR2A and pCDNA3/CCR2B respectively.
Linearised pCDNA3/CCR2B DNA was transfected into CHO-K1 cells by calcium phosphate precipitation (Wigler et al., 1979, Cell, 16, 777). Transfected cells were selected by the addition of Geneticin Sulphate (G418, Gibeo BRL) at 1 mg/ml, 24 hours after the cells had been transfected. Preparation of RNA and Northern blotting were carried out as described previously (Needham et al., 1995, Prot. Express. Purific., 6, 134). CHO-K1 clone 7 (CHO-CCR2B) was identified as the highest MCP-1 receptor B expresser.
CHO-CCR2B cells were grown in DMEM supplemented with 10% foetal calf serum, 2 mM glutamine, 1× Non-Essential Amino Acids, 1× Hypoxantiine and Thymidine Supplement and Penicillin-Streptomycin (at 50 μg streptomycin/ml, Gibco BRL). Membrane fragments were prepared using cell lysis/differential centrifuigation methods as described previously (Siciliano et al., 1990, J. Biol. Chem., 265, 19658). […]

THP-1 cells [2] = assay: MCP-1 mediated calcium flux in THP-1 cells; format: cell-based, human; details: FURA-2, stimulation with hMCP-1, read-out: EC50 of rise in [Ca2+]i
Experimental: The human monocytic cell line TIP-1 was grown in a synthetic cell culture medium RPM 1640 supplemented with 10% foetal calf serum, 6 mM glutamine and Penicillin-Streptomycin (at 50 μg streptomycin/ml, Gibeo BRL). THP-1 cells were washed in HBSS (lacking Ca^2+ and Mg^2+)+1 mg/ml BSA and resuspended in the same buffer at a density of 3×10^6 cells/ml. The cells were then loaded with […] FURA-2/AM for 30 mrin at 37° C., washed twice in HBSS, and resuspended at 1×10^6 cells/ml. TrP-1 cell suspension (0.9 ml) was added to a 5 ml disposable cuvette containing a magnetic stirrer bar and 2.1 ml of prewarmed (37° C.) HBSS containing 1 mg/ml BSA, 1 mM MgCl2 and 2 mM CaCl2. The cuvette was placed in a fluorescence spectrophotometer (Perkin Elner, Norwalk, Conn.) and preincubated for 4 min at 37° C. with stirring. Fluorescence was recorded over 70 sec and cells were stimulated by addition of hMCP-1 to the cuvette after 10 sec. [Ca^2+]i was measured by excitation at 340 nm and 380 nm alternately and subsequent measurement of the intensity of the fluorescence emission at 510 nm.
where the Kd for FURA-2 Ca^2+ complex at 37° C. was taken to be 224 nm. […]

For “MCP-1: Human Monocyte Chemoattractant Protein-1, a C-C chemokine; natural ligand of the CCR2 receptor, used as assay ligand/stimulus”, the “concentration giving maximal cell migration (biphasic response)” value (THP-1 cells [1]) was 0.5-1.0 nm, the IC50 (MCP-1 receptor B (CCR2B); cold competition with 100 pM 125I-labeled MCP-1, room temperature, read-out: IC50 of MCP-1 binding to CHO-CCR2B membrane fragments) was 0.11 nM and the Kd (MCP-1 receptor B (CCR2B); equilibrium binding, room temperature, read-out: Kd of MCP-1 binding to CHO-CCR2B membrane fragments) was 0.12 nM. It also gave an EC50 (THP-1 cells [2]) of ~2 nM.
